Values quoted from earlier work, collected in Sander's compilation of Henry's law constants (doi:10.1021/je0002282).

Assay: Henry solubility constant Hcp at 298.15 K (mol/(m3 Pa))
Conditions: reference: Plyasunov and Shock (2001); cited value

Row | Structure (SMILES) | Henry solubility constant Hcp
1 | CC(C)C(=O)C(C)C [2,4-dimethyl-3-pentanone] | 0.024
2 | CC(C)CC(=O)CC(C)C [2,6-dimethyl-4-heptanone] | 0.013
3 | CCCCCC(C)=O [2-heptanone] | 0.072
4 | CCCCC(C)=O [2-hexanone] | 0.098
5 | CCC(=O)C(C)C [2-methyl-3-pentanone] | 0.053
6 | CCCCCCCC(C)=O [2-nonanone] | 0.037
7 | CCCCCCC(C)=O [2-octanone] | 0.058
8 | CCCC(C)=O [2-pentanone] | 0.13
9 | CCCCCCCCCC(C)=O [2-undecanone] | 0.019
10 | CC(=O)C(C)(C)C [3,3-dimethyl-2-butanone] | 0.045
11 | CCCC(=O)CC [3-hexanone] | 0.075
12 | CC(=O)C(C)C [3-methyl-2-butanone] | 0.091
13 | CCC(=O)CC [3-pentanone] | 0.11
14 | CCCC(=O)CCC [4-heptanone] | 0.061
15 | CC(=O)CC(C)C [4-methyl-2-pentanone] | 0.069
16 | CC(C)=O [propanone] | 0.27
